Source: patent US20030166932A1 (priority 2002, published 2003)

How the values were obtained:
RARα = molecular target: T1, RARα (Homo sapiens, UniProt P10276); assay: chimeric receptor transactivation assay; format: cell-based
T1 sequence (P10276 1-462): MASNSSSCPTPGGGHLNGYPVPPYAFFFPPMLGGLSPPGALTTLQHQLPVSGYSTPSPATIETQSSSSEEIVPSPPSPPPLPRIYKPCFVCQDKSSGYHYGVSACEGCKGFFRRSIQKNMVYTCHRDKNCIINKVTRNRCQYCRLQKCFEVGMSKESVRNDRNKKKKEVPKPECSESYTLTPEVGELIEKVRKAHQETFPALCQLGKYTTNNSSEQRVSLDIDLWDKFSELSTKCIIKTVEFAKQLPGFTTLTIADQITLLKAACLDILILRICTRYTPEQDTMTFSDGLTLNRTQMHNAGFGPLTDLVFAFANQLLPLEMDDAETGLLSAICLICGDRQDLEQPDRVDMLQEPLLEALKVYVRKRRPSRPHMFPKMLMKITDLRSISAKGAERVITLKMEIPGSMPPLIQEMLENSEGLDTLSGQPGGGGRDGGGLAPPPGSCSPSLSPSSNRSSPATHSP
Text: (§1) The specification of U.S. Pat. No. 5,455,265 is hereby expressly incorporated by reference.

RXRβ [1] = molecular target: T2, RXRβ (UniProt P28704); assay: holoreceptor transactivation assay; format: cell-based; conditions: for EC50: NA = Not Active, read-out: RXR Trans. EC50 (nM) β; for % efficacy, RXR Trans. β: relative to 10^−6 M AGN 194204
T2 sequence (P28704 1-520): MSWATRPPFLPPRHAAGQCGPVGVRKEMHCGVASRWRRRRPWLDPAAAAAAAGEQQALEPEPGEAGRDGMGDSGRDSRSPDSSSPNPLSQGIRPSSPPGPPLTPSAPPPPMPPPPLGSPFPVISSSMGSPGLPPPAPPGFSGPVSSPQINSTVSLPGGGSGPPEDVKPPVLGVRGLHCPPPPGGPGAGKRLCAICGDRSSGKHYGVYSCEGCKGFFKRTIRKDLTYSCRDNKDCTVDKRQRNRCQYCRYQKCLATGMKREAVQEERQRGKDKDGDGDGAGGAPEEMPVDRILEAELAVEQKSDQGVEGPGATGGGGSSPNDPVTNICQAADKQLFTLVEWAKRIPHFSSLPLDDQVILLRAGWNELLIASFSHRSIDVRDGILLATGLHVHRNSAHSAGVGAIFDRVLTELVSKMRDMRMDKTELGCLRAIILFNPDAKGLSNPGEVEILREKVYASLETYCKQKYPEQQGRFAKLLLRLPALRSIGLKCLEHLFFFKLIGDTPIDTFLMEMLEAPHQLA
Text: (§2) The results obtained in this assay are expressed in EC50 numbers, as they are also in the chimeric receptor transactivation assay. The results of ligand binding assay are expressed in Kd numbers.
(§3) Particularly, the transactivation data pertaining to RAR receptors were obtained in the chimeric assay, and the data pertaining to transactivation of RXR receptors were obtained in the holoreceptor transactivation assay.

RXRγ [2] = molecular target: T3, RXRγ (UniProt P28705); assay: holoreceptor transactivation assay; format: cell-based; conditions: for EC50: NA = Not Active, read-out: RXR Trans. EC50 (nM) Y; for % efficacy, RXR Trans. Y: relative to 10^−6 M AGN 194204
T3 sequence (P28705 1-463): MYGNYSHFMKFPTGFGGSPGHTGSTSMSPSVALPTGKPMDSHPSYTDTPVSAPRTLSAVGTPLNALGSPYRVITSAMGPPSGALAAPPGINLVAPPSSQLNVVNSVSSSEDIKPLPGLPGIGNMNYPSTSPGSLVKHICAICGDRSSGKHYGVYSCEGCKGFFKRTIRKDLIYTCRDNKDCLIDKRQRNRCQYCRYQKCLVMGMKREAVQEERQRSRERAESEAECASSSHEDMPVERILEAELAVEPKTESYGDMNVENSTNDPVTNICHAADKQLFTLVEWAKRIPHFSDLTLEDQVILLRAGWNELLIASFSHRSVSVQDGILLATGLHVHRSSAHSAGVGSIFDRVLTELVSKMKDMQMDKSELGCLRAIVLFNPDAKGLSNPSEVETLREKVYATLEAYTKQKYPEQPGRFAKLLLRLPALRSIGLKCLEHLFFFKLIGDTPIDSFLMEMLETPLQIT
Text: as §2, §3

RARβ [3] = molecular target: T4, RARβ (Homo sapiens, UniProt P10826); assay: ligand binding assay; conditions: read-out: RAR Bind. Ki (nM) β
T4 sequence (P10826 1-455): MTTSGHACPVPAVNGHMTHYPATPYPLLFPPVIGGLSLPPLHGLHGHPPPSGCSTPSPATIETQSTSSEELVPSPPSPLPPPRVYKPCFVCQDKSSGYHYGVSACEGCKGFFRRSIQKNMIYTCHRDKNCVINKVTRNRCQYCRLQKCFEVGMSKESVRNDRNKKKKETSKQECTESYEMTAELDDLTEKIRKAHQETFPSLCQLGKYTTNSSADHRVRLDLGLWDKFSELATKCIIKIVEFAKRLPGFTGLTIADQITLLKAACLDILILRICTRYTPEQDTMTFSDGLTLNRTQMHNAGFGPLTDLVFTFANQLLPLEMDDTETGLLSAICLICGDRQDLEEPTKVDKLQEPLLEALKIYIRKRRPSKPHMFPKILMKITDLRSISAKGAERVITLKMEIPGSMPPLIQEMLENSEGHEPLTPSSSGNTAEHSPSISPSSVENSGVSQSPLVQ
Text: as §2, §3

RARγ [4] = molecular target: T5, RARγ (Homo sapiens, UniProt P13631); assay: ligand binding assay; conditions: read-out: RAR Bind. Ki (nM) Y
T5 sequence (P13631 1-454): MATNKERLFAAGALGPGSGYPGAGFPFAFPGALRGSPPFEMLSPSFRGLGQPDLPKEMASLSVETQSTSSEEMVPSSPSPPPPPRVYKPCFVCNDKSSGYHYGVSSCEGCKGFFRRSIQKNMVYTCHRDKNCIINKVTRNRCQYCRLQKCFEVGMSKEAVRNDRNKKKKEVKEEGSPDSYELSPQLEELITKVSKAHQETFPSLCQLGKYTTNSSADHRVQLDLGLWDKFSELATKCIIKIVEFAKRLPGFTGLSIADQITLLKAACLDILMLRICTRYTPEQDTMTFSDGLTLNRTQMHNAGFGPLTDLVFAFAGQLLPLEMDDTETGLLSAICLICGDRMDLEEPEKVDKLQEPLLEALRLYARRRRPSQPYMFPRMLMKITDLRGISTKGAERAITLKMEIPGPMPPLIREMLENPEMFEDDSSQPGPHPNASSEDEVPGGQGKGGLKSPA
Text: as §2, §3

RXRβ [5] = molecular target: T2, RXRβ; assay: ligand binding assay; conditions: read-out: RXR Bind Ki (nM) β
Text: as §2, §3

RXRα [6] = molecular target: T6, RXRα (Homo sapiens, UniProt P19793); assay: ligand binding assay
T6 sequence (P19793 1-462): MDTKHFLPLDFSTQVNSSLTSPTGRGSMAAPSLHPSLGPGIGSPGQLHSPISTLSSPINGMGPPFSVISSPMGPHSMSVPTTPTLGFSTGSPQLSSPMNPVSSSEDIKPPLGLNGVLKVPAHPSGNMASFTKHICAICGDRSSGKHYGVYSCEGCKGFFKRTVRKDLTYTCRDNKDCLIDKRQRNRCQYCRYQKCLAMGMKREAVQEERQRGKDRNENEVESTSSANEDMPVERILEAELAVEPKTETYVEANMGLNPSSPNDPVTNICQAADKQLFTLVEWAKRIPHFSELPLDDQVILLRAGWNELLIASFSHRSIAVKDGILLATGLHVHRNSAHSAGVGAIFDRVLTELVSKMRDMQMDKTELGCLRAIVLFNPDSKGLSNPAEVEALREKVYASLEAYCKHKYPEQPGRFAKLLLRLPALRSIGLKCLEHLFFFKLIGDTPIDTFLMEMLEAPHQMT
Text: as §2, §3

RXRα [7] = molecular target: T6, RXRα; assay: holoreceptor transactivation assay; conditions: for Emax: read-out: % efficacy, RXR Trans. α
Text: as §2, §3

RXRγ [8] = molecular target: T3, RXRγ; assay: ligand binding assay; conditions: read-out: RXR Bind Ki (nM) Y
RARβ [9] = molecular target: T7, RARβ (Homo sapiens, UniProt P10826); assay: cell-based; format: cell-based; conditions: for EC50: NA = Not Active, read-out: RAR Trans. EC50 (nM) β; for Emax: relative to 10^−6 M ATRA, read-out: % efficacy, RAR Trans. β
T7 sequence (P10826 154-455): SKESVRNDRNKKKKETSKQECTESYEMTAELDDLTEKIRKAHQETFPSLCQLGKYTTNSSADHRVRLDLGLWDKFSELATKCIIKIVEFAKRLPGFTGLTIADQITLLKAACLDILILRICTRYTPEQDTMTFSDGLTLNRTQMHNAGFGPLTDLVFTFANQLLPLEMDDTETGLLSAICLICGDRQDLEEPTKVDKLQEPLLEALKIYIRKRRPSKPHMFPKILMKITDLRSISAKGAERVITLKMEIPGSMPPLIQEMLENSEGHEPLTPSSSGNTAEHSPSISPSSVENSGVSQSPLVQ
Text: as §1

RARγ [10] = molecular target: T8, RARγ (Homo sapiens, UniProt P13631); format: cell-based
T8 sequence (P13631 156-454): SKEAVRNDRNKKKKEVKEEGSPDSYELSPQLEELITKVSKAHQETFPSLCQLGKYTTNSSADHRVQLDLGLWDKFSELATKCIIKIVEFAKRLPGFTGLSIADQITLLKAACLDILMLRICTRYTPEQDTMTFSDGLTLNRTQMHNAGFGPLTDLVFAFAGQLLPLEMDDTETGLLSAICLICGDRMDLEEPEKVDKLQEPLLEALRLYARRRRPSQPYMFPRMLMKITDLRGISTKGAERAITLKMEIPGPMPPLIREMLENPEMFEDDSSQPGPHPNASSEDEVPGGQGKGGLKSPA
Text: as §1

Compound | EC50 (RARα; NA = Not Active, read-out: RAR Trans. EC50 (nM) α) | Emax (RARα; relative to 10^−6 M ATRA, read-out: % efficacy, RAR Trans. α) | EC50 (RXRβ [1]) | % efficacy, RXR Trans. β (RXRβ [1]) | EC50 (RXRγ [2]) | % efficacy, RXR Trans. Y (RXRγ [2]) | Ki (RARβ [3]) | Ki (RARγ [4]) | Ki (RXRβ [5]) | Ki (RXRα [6]) | EC50 (RXRα [7]) | Emax (RXRα [7]) | Ki (RXRγ [8]) | EC50 (RARβ [9]) | Emax (RARβ [9]) | EC50 (RARγ [10]; NA = Not Active, read-out: RAR Trans. EC50 (nM) Y) | % efficacy, RAR Trans. Y (RARγ [10]; relative to 10^−6 M ATRA)
CCN(c1ccc(C(=O)O)cc1)c1cc2c(cc1C)C(C)(C)CC=C2C(C)(C)C [Compound 26, 4-[Ethyl(8-t-butyl-3,5,5-trimethyl-5,6-dihydronaphthalen-2-yl)amino]benzoic acid] | 0.5 nM | 10% | 4 nM | (84) % | 0.5 nM | (90) % | 1300 nM | 4000 nM | 30 nM | 7 nM | 0.3 nM | 85% |  |  |  |  | 
CCN(c1ccc(C(=O)O)cc1)c1ccc2c(c1)C(C(C)(C)C)=CCC2(C)C [Compound 88] |  |  | 41 nM | (100) % | 5 nM | (120) % | > 10000 nM | 3500 nM | 12 nM | 3 nM | 4 nM | 114% | 21 nM |  |  |  | 
C=CCN(c1ccc(C(=O)O)cc1)c1ccc2c(c1)C(C(C)(C)C)=CCC2(C)C [Compound 90, 4-[(8-t-Butyl-5,5-dimethyl-5,6-dihydronaphthalen-2-yl)(prop-2-en-yl)lamino]-benzoic acid] |  |  | 76 nM | (110) % | 12 nM | (102) % | > 10000 nM | > 10000 nM | 84 nM | 39 nM | 12 nM | 112% | 68 nM | > 1000 nM | 15% | > 1000 nM | (5) %
CCN(c1ccc(C(=O)O)cc1)c1cc2c(cc1OC)C(C)(C)CC=C2C(C)C [Compound 148, 4-[Ethyl-(8-isopropyl-3-methoxy-5,5-dimethyl-5,6-dihydronaphthalen-2-yl)amino]benzoic acid] |  |  | 8 nM | (63) % | 2 nM | (101) % | 7500 nM | > 10000 nM | 15 nM | 5 nM | 0.5 nM | 64% | 37 nM |  |  |  | 
CCCN(c1ccc(C(=O)O)cc1)c1cc2c(cc1OCc1ccccc1)C(C)(C)CC=C2C(C)C [Compound 157] |  |  |  |  |  |  | 1200 nM | 13000 nM | 46 nM | 8 nM |  |  | 99 nM | > 1000 nM | 32% |  | 
CCN(c1ccc2c(c1)C(C)=CCC2(C)C)c1ccc(C(=O)O)cn1 [Compound 170, 6-[Ethyl-(5,5,8-trimethyl-5,6-dihydro-naphthalen-2-yl)-amino]-nicotinic acid] |  |  | 379 nM | (110) % | 67 nM | (127) % | > 10000 nM | > 10000 nM | 190 nM | 64 nM | 33 nM | 113% | 61 nM |  |  |  | 
CCN(c1ccc2c(c1)C(C(C)C)=CCC2(C)C)c1ccc(C(=O)O)cn1 [Compound 172, 6-[Ethyl-(8-isopropyl5,5-dimethyl-5,6-dihydro-naphthalen-2-yl)-amino]-nicotinic acid] |  |  | 13 nM | (112) % | 2 nM | (118) % | 6000 nM | > 10000 nM | 4 nM | 0.7 nM | 2 nM | 109% | 6 nM |  |  |  | 
